ChEMBL document CHEMBL6134788, “Development of naphthalimide hydrazide derivatives as potent antibacterial agents against carbapenem-resistant A. baumannii” (RSC Med Chem, 2024)

Tests used:
Escherichia coli = test: Antibacterial activity against Escherichia coli ATCC 25922 assessed as inhibition of bacterial growth incubated for 16 to 18 hrs by CLSI protocol based method; type: functional; conditions: time 16-18 hrs, read-out: MIC100
Staphylococcus aureus = test: Antibacterial activity against Staphylococcus aureus ATCC 29213 assessed as inhibition of bacterial growth incubated for 16 to 18 hrs by CLSI protocol based method; type: functional; conditions: time 16-18 hrs, read-out: MIC100
Klebsiella pneumoniae = test: Antibacterial activity against Klebsiella pneumoniae BAA 1705 assessed as inhibition of bacterial growth incubated for 16 to 18 hrs by CLSI protocol based method; type: functional; conditions: time 16-18 hrs, read-out: MIC100
[1] = Cytotoxicity against African green monkey Vero cells assessed as reduction in cell viability incubated for 72 hrs by MTT assay; type: toxicity, cell-based; conditions: chlorocebus sabaeus
[2] = Selectivity index, ratio of CC50 for cytotoxicity against African green monkey VERO cells to MIC for antibacterial activity against carbapenem-resistant Acinetobacter baumannii BAA 1605 assessed as inhibition of bacterial growth; type: toxicity, cell-based; conditions: read-out: Selectivity Index
Acinetobacter baumannii [3] = test: Antibacterial activity against multi-drug resistant Acinetobacter baumannii clinical isolate 3 assessed as inhibition of bacterial growth incubated for 16 to 18 hrs by CLSI protocol based method; type: functional; conditions: time 16-18 hrs, read-out: MIC100
Acinetobacter baumannii [4] = test: Antibacterial activity against multi-drug resistant Acinetobacter baumannii clinical isolate 5 assessed as inhibition of bacterial growth incubated for 16 to 18 hrs by CLSI protocol based method; type: functional; conditions: time 16-18 hrs, read-out: MIC100
Acinetobacter baumannii [5] = test: Antibacterial activity against multi-drug resistant Acinetobacter baumannii clinical isolate 8 assessed as inhibition of bacterial growth incubated for 16 to 18 hrs by CLSI protocol based method; type: functional; conditions: time 16-18 hrs, read-out: MIC100
Acinetobacter baumannii [6] = test: Antibacterial activity against multi-drug resistant Acinetobacter baumannii clinical isolate 9 assessed as inhibition of bacterial growth incubated for 16 to 18 hrs by CLSI protocol based method; type: functional; conditions: time 16-18 hrs, read-out: MIC100
Acinetobacter baumannii [7] = test: Antibacterial activity against multi-drug resistant Acinetobacter baumannii clinical isolate 11 assessed as inhibition of bacterial growth incubated for 16 to 18 hrs by CLSI protocol based method; type: functional; conditions: time 16-18 hrs, read-out: MIC100
Acinetobacter baumannii [8] = test: Antibacterial activity against multi-drug resistant Acinetobacter baumannii clinical isolate 12 assessed as inhibition of bacterial growth incubated for 16 to 18 hrs by CLSI protocol based method; type: functional; conditions: time 16-18 hrs, read-out: MIC100
Acinetobacter baumannii [9] = test: Antibacterial activity against multi-drug resistant Acinetobacter baumannii 5-032 assessed as inhibition of bacterial growth incubated for 16 to 18 hrs by CLSI protocol based method; type: functional; conditions: time 16-18 hrs, read-out: MIC100
Acinetobacter baumannii [10] = test: Antibacterial activity against multi-drug resistant Acinetobacter baumannii 5-143 assessed as inhibition of bacterial growth incubated for 16 to 18 hrs by CLSI protocol based method; type: functional; conditions: time 16-18 hrs, read-out: MIC100
Acinetobacter baumannii [11] = test: Antibacterial activity against multi-drug resistant Acinetobacter baumannii BC-5 assessed as inhibition of bacterial growth incubated for 16 to 18 hrs by CLSI protocol based method; type: functional; conditions: time 16-18 hrs, read-out: MIC100
Acinetobacter baumannii [12] = test: Antibacterial activity against multi-drug resistant Acinetobacter baumannii Naval-18 assessed as inhibition of bacterial growth incubated for 16 to 18 hrs by CLSI protocol based method; type: functional; conditions: time 16-18 hrs, read-out: MIC100
Acinetobacter baumannii [13] = test: Antibacterial activity against multi-drug resistant Acinetobacter baumannii Naval-81 assessed as inhibition of bacterial growth incubated for 16 to 18 hrs by CLSI protocol based method; type: functional; conditions: time 16-18 hrs, read-out: MIC100
Acinetobacter baumannii [14] = test: Antibacterial activity against multi-drug resistant Acinetobacter baumannii WL-136 assessed as inhibition of bacterial growth incubated for 16 to 18 hrs by CLSI protocol based method; type: functional; conditions: time 16-18 hrs, read-out: MIC100
Acinetobacter baumannii [15] = test: Antibacterial activity against multi-drug resistant Acinetobacter baumannii WL-487 assessed as inhibition of bacterial growth incubated for 16 to 18 hrs by CLSI protocol based method; type: functional; conditions: time 16-18 hrs, read-out: MIC100
Acinetobacter baumannii [16] = test: Antibacterial activity against Acinetobacter baumannii ATCC 17978 assessed as inhibition of bacterial growth incubated for 16 to 18 hrs by CLSI protocol based method; type: functional; conditions: time 16-18 hrs, read-out: MIC100
Acinetobacter baumannii [17] = test: Antibacterial activity against carbapenem-resistant Acinetobacter baumannii BAA 1605 assessed as inhibition of bacterial growth incubated 24 hrs in presence of amikacin by checkerboard method; type: functional
Acinetobacter baumannii [18] = test: Antibacterial activity against carbapenem-resistant Acinetobacter baumannii BAA 1605 assessed as inhibition of bacterial growth incubated 24 hrs in presence of levofloxacin by checkerboard method; type: functional
Acinetobacter baumannii [19] = test: Antibacterial activity against carbapenem-resistant Acinetobacter baumannii BAA 1605 assessed as inhibition of bacterial growth incubated 24 hrs in presence of minocycline by checkerboard method; type: functional
Acinetobacter baumannii [20] = test: Antibacterial activity against carbapenem-resistant Acinetobacter baumannii BAA 1605 assessed as inhibition of bacterial growth incubated 24 hrs in presence of polymyxin B by checkerboard method; type: functional
Acinetobacter baumannii [21] = test: Antibacterial activity against carbapenem-resistant Acinetobacter baumannii BAA 1605 assessed as inhibition of bacterial growth incubated 24 hrs in presence of rifampicin by checkerboard method; type: functional
Acinetobacter baumannii [22] = test: Antibacterial activity against carbapenem-resistant Acinetobacter baumannii BAA 1605 assessed as inhibition of bacterial growth by measuring levofloxacin MIC incubated 24 hrs by checkerboard method; type: functional
Acinetobacter baumannii [23] = test: Antibacterial activity against carbapenem-resistant Acinetobacter baumannii BAA 1605 assessed as inhibition of bacterial growth by measuring minocycline MIC incubated 24 hrs by checkerboard method; type: functional
Acinetobacter baumannii [24] = test: Antibacterial activity against carbapenem-resistant Acinetobacter baumannii BAA 1605 assessed as inhibition of bacterial growth by measuring polymyxin B MIC incubated 24 hrs by checkerboard method; type: functional
Acinetobacter baumannii [25] = test: Synergistic antibacterial activity against carbapenem-resistant Acinetobacter baumannii BAA 1605 assessed as inhibition of bacterial growth by measuring tobramycin MIC incubated 24 hrs by checkerboard method; type: functional
Acinetobacter baumannii [26] = test: Antibacterial activity against carbapenem-resistant Acinetobacter baumannii BAA 1605 assessed as inhibition of bacterial growth by measuring fractional inhibitory concentration incubated 24 hrs in presence of amikacin by checkerboard method; type: functional
Acinetobacter baumannii [27] = test: Antibacterial activity against carbapenem-resistant Acinetobacter baumannii BAA 1605 assessed as inhibition of bacterial growth by measuring fractional inhibitory concentration incubated 24 hrs in presence of levofloxacin by checkerboard method; type: functional
Acinetobacter baumannii [28] = test: Antibacterial activity against carbapenem-resistant Acinetobacter baumannii BAA 1605 assessed as inhibition of bacterial growth by measuring fractional inhibitory concentration incubated 24 hrs in presence of minocycline by checkerboard method; type: functional
Acinetobacter baumannii [29] = test: Antibacterial activity against carbapenem-resistant Acinetobacter baumannii BAA 1605 assessed as inhibition of bacterial growth by measuring fractional inhibitory concentration incubated 24 hrs in presence of polymyxin B by checkerboard method; type: functional
Acinetobacter baumannii [30] = test: Synergistic antibacterial activity against carbapenem-resistant Acinetobacter baumannii BAA 1605 assessed as inhibition of bacterial growth by measuring fractional inhibitory concentration incubated 24 hrs in presence of tobramycin by checkerboard method; type: functional
Acinetobacter baumannii [31] = test: Antibacterial activity against carbapenem-resistant Acinetobacter baumannii BAA 1605 assessed as amikacin MIC by measuring fractional inhibitory concentration incubated 24 hrs by checkerboard method relative to amikacin alone; type: functional
Acinetobacter baumannii [32] = test: Antibacterial activity against carbapenem-resistant Acinetobacter baumannii BAA 1605 assessed as levofloxacin MIC by measuring fractional inhibitory concentration incubated 24 hrs by checkerboard method relative to levofloxacin alone; type: functional
Acinetobacter baumannii [33] = test: Antibacterial activity against carbapenem-resistant Acinetobacter baumannii BAA 1605 assessed as minocycline MIC by measuring fractional inhibitory concentration incubated 24 hrs by checkerboard method relative to minocycline alone; type: functional
Acinetobacter baumannii [34] = test: Antibacterial activity against carbapenem-resistant Acinetobacter baumannii BAA 1605 assessed as polymyxin B MIC by measuring fractional inhibitory concentration incubated 24 hrs by checkerboard method relative to polymyxin B alone; type: functional

O=C(CCN1C(=O)c2cccc3cccc(c23)C1=O)NNc1ccc(Br)cc1
1 mg/L: MIC (Acinetobacter baumannii [4]) | MIC (Acinetobacter baumannii [18]) | MIC (Acinetobacter baumannii [19]) | MIC (Acinetobacter baumannii [25])
1: FIC (Acinetobacter baumannii [27]) | FIC (Acinetobacter baumannii [28]) | FIC (Acinetobacter baumannii [32]) | FIC (Acinetobacter baumannii [33])
4 mg/L: MIC (Acinetobacter baumannii [7]) | MIC (Acinetobacter baumannii [23])
> 100 mg/L: CC50 at 72 h [1]
> 64 mg/L: MIC (Escherichia coli) | MIC (Staphylococcus aureus) | MIC (Klebsiella pneumoniae)
8 mg/L: MIC (Acinetobacter baumannii [22])
0.5 mg/L: MIC (Acinetobacter baumannii [5]) | MIC (Acinetobacter baumannii [6]) | MIC (Acinetobacter baumannii [8]) | MIC (Acinetobacter baumannii [9]) | MIC (Acinetobacter baumannii [11]) | MIC (Acinetobacter baumannii [12]) | MIC (Acinetobacter baumannii [13]) | MIC (Acinetobacter baumannii [14]) | MIC (Acinetobacter baumannii [15]) | MIC (Acinetobacter baumannii [16]) | MIC (Acinetobacter baumannii [21])
0.25: FIC (Acinetobacter baumannii [26]) | FIC (Acinetobacter baumannii [29]) | FIC (Acinetobacter baumannii [30])
> 200: selectivity ratio [2]
0.5: FIC (Acinetobacter baumannii [31]) | FIC (Acinetobacter baumannii [34])
0.25 mg/L: MIC (Acinetobacter baumannii [3]) | MIC (Acinetobacter baumannii [10]) | MIC (Acinetobacter baumannii [17]) | MIC (Acinetobacter baumannii [20]) | MIC (Acinetobacter baumannii [24])
